# Experiments:
# Assay in all cases: cells
# MOLT-4 = assay type: functional; conditions: Homo sapiens, time 48 hrs
# Description: Growth inhibition of human MOLT-4 cells measured after 48 hrs by sulforhodamine B assay
# RPMI-8226 [1] = assay type: functional; conditions: Homo sapiens, time 48 hrs
# Description: Growth inhibition of human RPMI-8226 cells measured after 48 hrs by sulforhodamine B assay
# HOP-62 [2] = assay type: functional; conditions: Homo sapiens, time 48 hrs
# Description: Growth inhibition of human HOP-62 cells measured after 48 hrs by sulforhodamine B assay
# HOP-92 = assay type: functional; conditions: Homo sapiens, time 48 hrs
# Description: Growth inhibition of human HOP-92 cells measured after 48 hrs by sulforhodamine B assay
# COLO 205 [3] = assay type: functional; conditions: Homo sapiens, time 48 hrs
# Description: Growth inhibition of human COLO 205 cells measured after 48 hrs by sulforhodamine B assay
# SW-620 = assay type: functional; conditions: Homo sapiens, time 48 hrs
# Description: Growth inhibition of human SW620 cells measured after 48 hrs by sulforhodamine B assay
# SF-539 [4] = assay type: functional; conditions: Homo sapiens, time 48 hrs
# Description: Growth inhibition of human SF-539 cells measured after 48 hrs by sulforhodamine B assay
# SNB-75 [5] = assay type: functional; conditions: Homo sapiens, time 48 hrs
# Description: Growth inhibition of human SNB-75 cells measured after 48 hrs by sulforhodamine B assay
# Malme-3M [6] = assay type: functional; conditions: Homo sapiens, time 48 hrs
# OVCAR-8 [7] = assay type: functional; conditions: Homo sapiens, time 48 hrs
# Description: Growth inhibition of human OVCAR-8 cells measured after 48 hrs by sulforhodamine B assay
# RXF 393 = assay type: functional; conditions: Homo sapiens, time 48 hrs
# Description: Growth inhibition of human RXF 393 cells measured after 48 hrs by sulforhodamine B assay
# MDA-MB-231 [8] = assay type: functional; conditions: Homo sapiens, time 48 hrs
# Description: Growth inhibition of human MDA-MB-231 cells measured after 48 hrs by sulforhodamine B assay
# Hs-578T [9] = assay type: functional; conditions: Homo sapiens, time 48 hrs
# Description: Growth inhibition of human Hs-578T cells measured after 48 hrs by sulforhodamine B assay
# HL-60(TB) [10] = assay type: functional; conditions: Homo sapiens, time 48 hrs
# Description: Cytostatic activity against human HL-60(TB) cells assessed as total growth inhibition measured after 48 hrs by sulforhodamine B assay
# SR = assay type: functional; conditions: Homo sapiens, time 48 hrs
# Description: Cytostatic activity against human SR cells assessed as total growth inhibition measured after 48 hrs by sulforhodamine B assay
# HOP-62 [11] = assay type: functional; conditions: Homo sapiens, time 48 hrs; remark: listed apart in the source
# Description: Cytostatic activity against human HOP-62 cells assessed as total growth inhibition measured after 48 hrs by sulforhodamine B assay
# NCI-H322M = assay type: functional; conditions: Homo sapiens, time 48 hrs
# Description: Cytostatic activity against human NCI-H322M cells assessed as total growth inhibition measured after 48 hrs by sulforhodamine B assay
# NCI-H460 = assay type: functional; conditions: Homo sapiens, time 48 hrs
# Description: Cytostatic activity against human NCI-H460 cells assessed as total growth inhibition measured after 48 hrs by sulforhodamine B assay
# HCC 2998 [12] = assay type: functional; conditions: Homo sapiens, time 48 hrs
# Description: Cytostatic activity against human HCC 2998 cells assessed as total growth inhibition measured after 48 hrs by sulforhodamine B assay
# HCT-116 = assay type: functional; conditions: Homo sapiens, time 48 hrs
# Description: Cytostatic activity against human HCT-116 cells assessed as total growth inhibition measured after 48 hrs by sulforhodamine B assay
# HCT-15 [13] = assay type: functional; conditions: Homo sapiens, time 48 hrs
# Description: Cytostatic activity against human HCT-15 cells assessed as total growth inhibition measured after 48 hrs by sulforhodamine B assay
# HT-29 [14] = assay type: functional; conditions: Homo sapiens, time 48 hrs
# Description: Cytostatic activity against human HT-29 cells assessed as total growth inhibition measured after 48 hrs by sulforhodamine B assay
# SF-295 [15] = assay type: functional; conditions: Homo sapiens, time 48 hrs
# Description: Cytostatic activity against human SF-295 cells assessed as total growth inhibition measured after 48 hrs by sulforhodamine B assay
# SF-539 [16] = assay type: functional; conditions: Homo sapiens, time 48 hrs; remark: listed apart in the source
# Description: Cytostatic activity against human SF-539 cells assessed as total growth inhibition measured after 48 hrs by sulforhodamine B assay
# SNB-75 [17] = assay type: functional; conditions: Homo sapiens, time 48 hrs; remark: listed apart in the source
# Description: Cytostatic activity against human SNB-75 cells assessed as total growth inhibition measured after 48 hrs by sulforhodamine B assay
# MDA-MB-435 [18] = assay type: functional; conditions: Homo sapiens, time 48 hrs
# Description: Cytostatic activity against human MDA-MB-435 cells assessed as total growth inhibition measured after 48 hrs by sulforhodamine B assay
# UACC-62 [19] = assay type: functional; conditions: Homo sapiens, time 48 hrs
# Description: Cytostatic activity against human UACC-62 cells assessed as total growth inhibition measured after 48 hrs by sulforhodamine B assay
# IGROV-1 [20] = assay type: functional; conditions: Homo sapiens, time 48 hrs
# Description: Cytostatic activity against human IGROV-1 cells assessed as total growth inhibition measured after 48 hrs by sulforhodamine B assay
# OVCAR-3 = assay type: functional; conditions: Homo sapiens, time 48 hrs
# Description: Cytostatic activity against human OVCAR-3 cells assessed as total growth inhibition measured after 48 hrs by sulforhodamine B assay
# OVCAR-4 [21] = assay type: functional; conditions: Homo sapiens, time 48 hrs
# Description: Cytostatic activity against human OVCAR-4 cells assessed as total growth inhibition measured after 48 hrs by sulforhodamine B assay
# OVCAR-8 [22] = assay type: functional; conditions: Homo sapiens, time 48 hrs; remark: listed apart in the source
# Description: Cytostatic activity against human OVCAR-8 cells assessed as total growth inhibition measured after 48 hrs by sulforhodamine B assay
# 786-0 = assay type: functional; conditions: Homo sapiens, time 48 hrs
# Description: Cytostatic activity against human 786-0 cells assessed as total growth inhibition measured after 48 hrs by sulforhodamine B assay
# A498 = assay type: functional; conditions: Homo sapiens, time 48 hrs
# Description: Cytostatic activity against human A498 cells assessed as total growth inhibition measured after 48 hrs by sulforhodamine B assay
# SN12C [23] = assay type: functional; conditions: Homo sapiens, time 48 hrs
# Description: Cytostatic activity against human SN12C cells assessed as total growth inhibition measured after 48 hrs by sulforhodamine B assay
# MCF7 = assay type: functional; conditions: Homo sapiens, time 48 hrs
# Description: Cytostatic activity against human MCF7 cells assessed as total growth inhibition measured after 48 hrs by sulforhodamine B assay
# MDA-MB-231 [24] = assay type: functional; conditions: Homo sapiens, time 48 hrs; remark: listed apart in the source
# Description: Cytostatic activity against human MDA-MB-231 cells assessed as total growth inhibition measured after 48 hrs by sulforhodamine B assay
# BT-549 = assay type: functional; conditions: Homo sapiens, time 48 hrs
# Description: Cytostatic activity against human BT-549 cells assessed as total growth inhibition measured after 48 hrs by sulforhodamine B assay
# T47D = assay type: functional; conditions: Homo sapiens, time 48 hrs
# Description: Cytostatic activity against human T47D cells assessed as total growth inhibition measured after 48 hrs by sulforhodamine B assay
# HL-60(TB) [25] = conditions: Homo sapiens, HL-60, 48 h, read-out: LC50
# Description: Cytotoxicity activity against human HL-60(TB) cells assessed as reduction in cell growth measured after 48 hrs by sulforhodamine B assay
# RPMI-8226 [26] = conditions: Homo sapiens, RPMI-8226, 48 h, read-out: LC50
# Description: Cytotoxicity activity against human RPMI-8226 cells assessed as reduction in cell growth measured after 48 hrs by sulforhodamine B assay
# A549 = conditions: Homo sapiens, A549, 48 h, read-out: LC50
# Description: Cytotoxicity activity against human A549 cells assessed as reduction in cell growth measured after 48 hrs by sulforhodamine B assay
# NCI-H522 = conditions: Homo sapiens, NCI-H522, 48 h, read-out: LC50
# Description: Cytotoxicity activity against human NCI-H522 cells assessed as reduction in cell growth measured after 48 hrs by sulforhodamine B assay
# COLO 205 [27] = conditions: Homo sapiens, COLO 205, 48 h, read-out: LC50
# Description: Cytotoxicity activity against human COLO 205 cells assessed as reduction in cell growth measured after 48 hrs by sulforhodamine B assay
# HCC 2998 [28] = conditions: Homo sapiens, HCC 2998, 48 h, read-out: LC50
# Description: Cytotoxicity activity against human HCC 2998 cells assessed as reduction in cell growth measured after 48 hrs by sulforhodamine B assay
# HCT-15 [29] = conditions: Homo sapiens, HCT-15, 48 h, read-out: LC50
# Description: Cytotoxicity activity against human HCT-15 cells assessed as reduction in cell growth measured after 48 hrs by sulforhodamine B assay
# HT-29 [30] = conditions: Homo sapiens, HT-29, 48 h, read-out: LC50
# Description: Cytotoxicity activity against human HT-29 cells assessed as reduction in cell growth measured after 48 hrs by sulforhodamine B assay
# SF-295 [31] = conditions: Homo sapiens, SF-295, 48 h, read-out: LC50
# Description: Cytotoxicity activity against human SF-295 cells assessed as reduction in cell growth measured after 48 hrs by sulforhodamine B assay
# SNB-19 = conditions: Homo sapiens, SNB-19, 48 h, read-out: LC50
# Description: Cytotoxicity activity against human SNB-19 cells assessed as reduction in cell growth measured after 48 hrs by sulforhodamine B assay
# Malme-3M [32] = conditions: Homo sapiens, 48 h, read-out: LC50
# Description: Cytotoxicity activity against human Malme-3M cells assessed as reduction in cell growth measured after 48 hrs by sulforhodamine B assay
# MDA-MB-435 [33] = conditions: Homo sapiens, MDA-MB-435, 48 h, read-out: LC50
# Description: Cytotoxicity activity against human MDA-MB-435 cells assessed as reduction in cell growth measured after 48 hrs by sulforhodamine B assay
# UACC-257 = conditions: Homo sapiens, UACC-257, 48 h, read-out: LC50
# Description: Cytotoxicity activity against human UACC-257 cells assessed as reduction in cell growth measured after 48 hrs by sulforhodamine B assay
# UACC-62 [34] = conditions: Homo sapiens, UACC-62, 48 h, read-out: LC50
# Description: Cytotoxicity activity against human UACC-62 cells assessed as reduction in cell growth measured after 48 hrs by sulforhodamine B assay
# IGROV-1 [35] = conditions: Homo sapiens, IGROV-1, 48 h, read-out: LC50
# Description: Cytotoxicity activity against human IGROV-1 cells assessed as reduction in cell growth measured after 48 hrs by sulforhodamine B assay
# OVCAR-4 [36] = conditions: Homo sapiens, OVCAR-4, 48 h, read-out: LC50
# Description: Cytotoxicity activity against human OVCAR-4 cells assessed as reduction in cell growth measured after 48 hrs by sulforhodamine B assay
# OVCAR-5 = conditions: Homo sapiens, OVCAR-5, 48 h, read-out: LC50
# Description: Cytotoxicity activity against human OVCAR-5 cells assessed as reduction in cell growth measured after 48 hrs by sulforhodamine B assay
# OVCAR-8 [37] = conditions: Homo sapiens, OVCAR-8, 48 h, read-out: LC50
# Description: Cytotoxicity activity against human OVCAR-8 cells assessed as reduction in cell growth measured after 48 hrs by sulforhodamine B assay
# SN12C [38] = conditions: Homo sapiens, 48 h, read-out: LC50
# Description: Cytotoxicity activity against human SN12C cells assessed as reduction in cell growth measured after 48 hrs by sulforhodamine B assay
# PC-3 = conditions: Homo sapiens, PC-3, 48 h, read-out: LC50
# Description: Cytotoxicity activity against human PC-3 cells assessed as reduction in cell growth measured after 48 hrs by sulforhodamine B assay
# Hs-578T [39] = conditions: Homo sapiens, 48 h, read-out: LC50
# Description: Cytotoxicity activity against human Hs-578T cells assessed as reduction in cell growth measured after 48 hrs by sulforhodamine B assay
# MDA-MB-468 = conditions: Homo sapiens, MDA-MB-468, 48 h, read-out: LC50
# Description: Cytotoxicity activity against human MDA-MB-468 cells assessed as reduction in cell growth measured after 48 hrs by sulforhodamine B assay
compound,measurement,setting,value
CCOC(=O)c1ccc(N/N=C/c2cn(-c3ccc(S(N)(=O)=O)cc3)nc2-c2ccc(C)cc2)cc1,GI50,MOLT-4,2.87 µM
same,GI50,RPMI-8226 [1],3.24 µM
same,GI50,HOP-62 [2],6.55 µM
same,GI50,HOP-92,2.79 µM
same,GI50,COLO 205 [3],11.2 µM
same,GI50,SW-620,3.66 µM
same,GI50,SF-539 [4],2.55 µM
same,GI50,SNB-75 [5],10.1 µM
same,GI50,Malme-3M [6],7.32 µM
same,GI50,OVCAR-8 [7],5.68 µM
same,GI50,RXF 393,1.97 µM
same,GI50,MDA-MB-231 [8],2.56 µM
same,GI50,Hs-578T [9],2.76 µM
same,TGI,HL-60(TB) [10],14.1 µM
same,TGI,SR,2.65 µM
same,TGI,HOP-62 [11],6.55 µM
same,TGI,NCI-H322M,5.38 µM
same,TGI,NCI-H460,2.43 µM
same,TGI,HCC 2998 [12],4.23 µM
same,TGI,HCT-116,10.6 µM
same,TGI,HCT-15 [13],4.23 µM
same,TGI,HT-29 [14],8.38 µM
same,TGI,SF-295 [15],24.8 µM
same,TGI,SF-539 [16],8.03 µM
same,TGI,SNB-75 [17],46.4 µM
same,TGI,MDA-MB-435 [18],8.96 µM
same,TGI,UACC-62 [19],21.5 µM
same,TGI,IGROV-1 [20],25.9 µM
same,TGI,OVCAR-3,7.27 µM
same,TGI,OVCAR-4 [21],71.5 µM
same,TGI,OVCAR-8 [22],> 100 µM
same,TGI,786-0,5.74 µM
same,TGI,A498,31.8 µM
same,TGI,SN12C [23],58.6 µM
same,TGI,MCF7,7.77 µM
same,TGI,MDA-MB-231 [24],9.13 µM
same,TGI,BT-549,40.6 µM
same,TGI,T47D,> 100 µM
same,CC50,HL-60(TB) [25],> 100 µM
same,CC50,RPMI-8226 [26],> 100 µM
same,CC50,A549,> 100 µM
same,CC50,NCI-H522,> 100 µM
same,CC50,COLO 205 [27],> 100 µM
same,CC50,HCC 2998 [28],8.71 µM
same,CC50,HCT-15 [29],9.53 µM
same,CC50,HT-29 [30],> 100 µM
same,CC50,SF-295 [31],74.3 µM
same,CC50,SNB-19,> 100 µM
same,CC50,Malme-3M [32],62.5 µM
same,CC50,MDA-MB-435 [33],70.2 µM
same,CC50,UACC-257,> 100 µM
same,CC50,UACC-62 [34],59.8 µM
same,CC50,IGROV-1 [35],> 100 µM
same,CC50,OVCAR-4 [36],> 100 µM
same,CC50,OVCAR-5,63.6 µM
same,CC50,OVCAR-8 [37],> 100 µM
same,CC50,SN12C [38],> 100 µM
same,CC50,PC-3,> 100 µM
same,CC50,Hs-578T [39],> 100 µM
same,CC50,MDA-MB-468,99.3 µM
